Read-outs that look alike come from different tables or passages of the source.
Experiments:
[1] = target: T1, huBChE (Homo sapiens, UniProt P06276); format: biochemical; conditions: for IC50: head prints no unit, nM, read-out: IC50 ±SEM huBChE
T1 construct: made in house
Procedure: (§1) The inhibitory potencies of the compounds against the ChEs were determined using the method of Ellman[32].
(§2) The enzyme solutions were prepared by dilution of the concentrated stocks in phosphate-buffered solution (0.1 M, pH 8.0). […] The reactions were started by addition of the substrate, at room temperature. The final content of the organic solvent (DMSO) was always 1%. […] To determine the blank value (b), phosphate-buffered solution replaced the enzyme solution. The initial velocity (v0) was calculated from the slope of the linear trend obtained, with each measurement carried out in triplicate. […] The compounds were added to each well at a final concentration of 10 μM. […] The initial velocities in the presence of the test compounds (vi) were calculated. The inhibitory potencies are expressed as the residual activities (RA = (vi – b) / (vo – b)). […] The IC50 values were obtained by plotting the residual enzyme activities against the applied inhibitor concentrations, with the experimental data fitted to Equation (1):
(§3) where X is the logarithm of the inhibitor concentration, and Y is the residual activity. For the fitting procedure, the Gnuplot software and an in-house python script were used.

[2] = target: T2, mAChE (Mus musculus, UniProt P21836); test: In-vitro inhibitory activity against mAChE, method of Ellman; format: biochemical, murine
T2 construct: donated by Florian Nachon (IBS, Grenoble)
T2 sequence (P21836 32-614): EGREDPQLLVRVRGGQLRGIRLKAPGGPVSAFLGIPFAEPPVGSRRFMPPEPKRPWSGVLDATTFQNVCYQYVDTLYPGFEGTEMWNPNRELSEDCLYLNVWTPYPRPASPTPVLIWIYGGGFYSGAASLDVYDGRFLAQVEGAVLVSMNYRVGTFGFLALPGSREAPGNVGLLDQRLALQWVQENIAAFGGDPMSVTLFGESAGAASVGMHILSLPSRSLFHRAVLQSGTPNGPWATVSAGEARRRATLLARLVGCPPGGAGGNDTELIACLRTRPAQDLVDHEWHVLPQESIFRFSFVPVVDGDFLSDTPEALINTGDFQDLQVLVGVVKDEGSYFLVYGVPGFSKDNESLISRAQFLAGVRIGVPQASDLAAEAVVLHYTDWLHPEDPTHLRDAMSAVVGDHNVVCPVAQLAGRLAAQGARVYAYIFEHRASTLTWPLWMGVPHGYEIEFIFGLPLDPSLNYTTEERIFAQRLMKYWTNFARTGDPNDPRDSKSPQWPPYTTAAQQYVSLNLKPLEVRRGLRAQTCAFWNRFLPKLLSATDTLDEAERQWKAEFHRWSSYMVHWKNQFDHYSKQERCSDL
Procedure: as §1, §2, §3

[3] = residual activity at 10 μM, Table 1
[4] = residual activity at 10 μM, %RA > 75% was considered as no inhibition, Table 1
[5] = residual activity at 10 µM, %RA >75% was considered no inhibition, Supplementary Table 1

T1 sequence (P06276 29-602): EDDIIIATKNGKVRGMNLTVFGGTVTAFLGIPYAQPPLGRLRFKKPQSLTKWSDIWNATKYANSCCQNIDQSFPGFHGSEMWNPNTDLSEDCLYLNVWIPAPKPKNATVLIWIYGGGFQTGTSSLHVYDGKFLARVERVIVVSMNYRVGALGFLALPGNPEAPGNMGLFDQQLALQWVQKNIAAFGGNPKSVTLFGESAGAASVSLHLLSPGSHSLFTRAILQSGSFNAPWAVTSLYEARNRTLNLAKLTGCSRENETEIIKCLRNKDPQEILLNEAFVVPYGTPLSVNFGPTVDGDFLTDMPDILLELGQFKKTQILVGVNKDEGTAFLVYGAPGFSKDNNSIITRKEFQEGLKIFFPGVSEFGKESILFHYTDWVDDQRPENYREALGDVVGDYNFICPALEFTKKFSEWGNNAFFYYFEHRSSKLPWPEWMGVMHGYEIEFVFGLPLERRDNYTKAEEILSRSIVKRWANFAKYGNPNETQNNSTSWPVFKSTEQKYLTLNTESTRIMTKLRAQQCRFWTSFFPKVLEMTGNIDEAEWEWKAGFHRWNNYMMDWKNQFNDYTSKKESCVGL

Row | Compound | %RA at 10 µM ±SEM mAChE [2, 5] | IC50 ([1]; Supplementary Table 1) [nM] | also measured
1 | COCCN(CC1CCCN(C2Cc3ccccc3C2)C1)S(=O)(=O)c1ccc2ccccc2c1 (racemic) [compound 3, (±)-N-((1-(2,3-dihydro-1H-inden-2-yl)piperidin-3-yl)methyl)-N-(2-methoxyethyl)naphthalene-2-sulfonamide] | 72% ±1% | – | %RA at 10μM ± SEM huBChE [1, 3]: 1.47% ± 1.54%; %RA at 10 µM ±SEM mAChE [2, 4]: 72% ± 1%
2 | COCCN(CC1CCCN(C2Cc3ccccc3C2)C1)S(=O)(=O)c1cccc(N)c1 (racemic) [compound 4, (±)-3-amino-N-((1-(2,3-dihydro-1H-inden-2-yl)piperidin-3-yl)methyl)-N-(2-methoxyethyl)benzenesulfonamide] | 90% ±0.003% | – | %RA at 10μM ± SEM huBChE [1, 3]: 2.34% ± 0.13%; %RA at 10 µM ±SEM mAChE [2, 4]: 90% ± 0.003%
3 | COCCCN(CC1CCCN(Cc2ccccc2)C1)S(=O)(=O)c1ccc2ccccc2c1 (racemic) [compound 5, (±)-N-((1-benzylpiperidin-3-yl)methyl)-N-(3-methoxypropyl)naphthalene-2-sulfonamide] | 95% ±5% | – | %RA at 10μM ± SEM huBChE [1, 3]: 0.71% ± 0.66%; %RA at 10 µM ±SEM mAChE [2, 4]: 95% ± 5%
4 | O=S(=O)(NCC1CCCN(Cc2ccccc2)C1)c1ccc2ccccc2c1 (racemic) [compound 7, (±)-N-((1-benzylpiperidin-3-yl)methyl)naphthalene-2-sulfonamide] | 78% ±3% | – | –
5 | CN(CC1CCCN(Cc2ccccc2)C1)S(=O)(=O)c1ccc2ccccc2c1 (racemic) [compound 8, (±)-N-((1-benzylpiperidin-3-yl)methyl)-N-methylnaphthalene-2-sulfonamide] | 82% ±1% | – | –
6 | COCCN(CC1CCCN(C2Cc3ccccc3C2)C1)S(=O)(=O)c1cccc([N+](=O)[O-])c1 (racemic) [compound 13, (±)-N-((1-(2,3-dihydro-1H-inden-2-yl)piperidin-3-yl)methyl)-N-(2-methoxyethyl)-3-nitrobenzenesulfonamide] | – | 3610 ± 528 | –
7 | COCCN(CC1CCCN(C2Cc3ccccc3C2)C1)S(=O)(=O)c1ccccc1 (racemic) [compound 16, (±)-N-((1-(2,3-dihydro-1H-inden-2-yl)piperidin-3-yl)methyl)-N-(2-methoxyethyl)benzenesulfonamide] | 97% ±4% | 343 ± 5 | –
8 | COCCN(CC1CCCN(C2Cc3ccccc3C2)C1)S(=O)(=O)c1ccc(C)cc1 (racemic) [compound 17, (±)-N-((1-(2,3-dihydro-1H-inden-2-yl)piperidin-3-yl)methyl)-N-(2-methoxyethyl)-4-methylbenzenesulfonamide] | 86% ±3% | 279 ± 8 | –
9 | COCCN(CC1CCCN(C2Cc3ccccc3C2)C1)S(=O)(=O)c1ccc(F)cc1 (racemic) [compound 18, (±)-N-((1-(2,3-dihydro-1H-inden-2-yl)piperidin-3-yl)methyl)-4-fluoro-N-(2-methoxyethyl)benzenesulfonamide] | 88% ±2% | 887 ± 80 | –
10 | COCCN(CC1CCCN(C2Cc3ccccc3C2)C1)S(=O)(=O)c1ccc(OC)cc1 (racemic) [compound 19, (±)-N-((1-(2,3-dihydro-1H-inden-2-yl)piperidin-3-yl)methyl)-4-methoxy-N-(2-methoxyethyl)benzenesulfonamide] | 87% ±7% | 482 ± 66 | –
11 | COCCN(CC1CCCN(C2Cc3ccccc3C2)C1)S(=O)(=O)c1ccc([N+](=O)[O-])cc1 (racemic) [compound 20, (±)-N-((1-(2,3-dihydro-1H-inden-2-yl)piperidin-3-yl)methyl)-N-(2-methoxyethyl)-4-nitrobenzenesulfonamide] | 91% ±1% | 3470 ± 52 | –
12 | COCCN(CC1CCCN(C2Cc3ccccc3C2)C1)S(=O)(=O)c1ccccc1C(=O)OC (racemic) [compound 21, (±)-methyl 2-(N-((1-(2,3-dihydro-1H-inden-2-yl)piperidin-3-yl)methyl)-N-(2-methoxyethyl)sulfamoyl)benzoate] | 94% ±0.001% | 359 ± 18 | –
13 | COCCN(CC1CCCN(C2Cc3ccccc3C2)C1)S(=O)(=O)c1ccc(N)cc1 (racemic) [compound 22, (±)-4-amino-N-((1-(2,3-dihydro-1H-inden-2-yl)piperidin-3-yl)methyl)-N-(2-methoxyethyl)benzenesulfonamide] | 91% ±1% | 314 ± 36 | –
14 | COCCN(CC1CCCN(C2Cc3ccccc3C2)C1)S(=O)(=O)c1ccc(NC(C)=O)cc1 (racemic) [compound 23, (±)-N-(4-(N-((1-(2,3-dihydro-1H-inden-2-yl)piperidin-3-yl)methyl)-N-(2-methoxyethyl)sulfamoyl)phenyl)acetamide] | 85% ±5% | 321 ± 35 | –
15 | COCCN(CC1CCCN(C2Cc3ccccc3C2)C1)S(=O)(=O)c1cccc(NC(C)=O)c1 (racemic) [compound 24, (±)-N-(3-(N-((1-(2,3-dihydro-1H-inden-2-yl)piperidin-3-yl)methyl)-N-(2-methoxyethyl)sulfamoyl)phenyl)acetamide] | 95% ±4% | 8210 ± 601 | –
16 | CNC(=O)c1ccccc1S(=O)(=O)N(CCOC)CC1CCCN(C2Cc3ccccc3C2)C1 (racemic) [compound 25, (±)-2-(N-((1-(2,3-dihydro-1H-inden-2-yl)piperidin-3-yl)methyl)-N-(2-methoxyethyl)sulfamoyl)-N-methylbenzamide] | 101% ±4% | 3220 ± 492 | –
17 | COCCN(CC1CCCN(Cc2ccc(F)cc2)C1)S(=O)(=O)c1ccc2ccccc2c1 (racemic) [compound 37, (±)-N-((1-(4-fluorobenzyl)piperidin-3-yl)methyl)-N-(2-methoxyethyl)naphthalene-2-sulfonamide] | 89% ±3% | 23.1 ± 6 | –
18 | COCCN(CC1CCCN(Cc2cccc(F)c2)C1)S(=O)(=O)c1ccc2ccccc2c1 (racemic) [compound 38, (±)-N-((1-(3-fluorobenzyl)piperidin-3-yl)methyl)-N-(2-methoxyethyl)naphthalene-2-sulfonamide] | 99% ±0.001% | 49.1 ± 1.2 | –
19 | COCCN(CC1CCCN(Cc2ccc(C#N)cc2)C1)S(=O)(=O)c1ccc2ccccc2c1 (racemic) [compound 39, (±)-N-((1-(4-cyanobenzyl)piperidin-3-yl)methyl)-N-(2-methoxyethyl)naphthalene-2-sulfonamide] | 97% ±2% | 1460 ± 115 | –
20 | COCCN(CC1CCCN(Cc2cccc(C#N)c2)C1)S(=O)(=O)c1ccc2ccccc2c1 (racemic) [compound 40, (±)-N-((1-(3-cyanobenzyl)piperidin-3-yl)methyl)-N-(2-methoxyethyl)naphthalene-2-sulfonamide] | 93% ±3% | 338 ± 8 | –
21 | COCCN(CC1CCCN(Cc2ccc(N(C)C)cc2)C1)S(=O)(=O)c1ccc2ccccc2c1 (racemic) [compound 41, (±)-N-((1-(4-(dimethylamino)benzyl)piperidin-3-yl)methyl)-N-(2-methoxyethyl)naphthalene-2-sulfonamide] | 105% ±6% | 311 ± 22 | –
22 | O=S(=O)(NCC1CCCN(c2nc3ccccc3s2)C1)c1ccc2ccccc2c1 (racemic) [compound 71, (±)-N-((1-(benzo[d]thiazol-2-yl)piperidin-3-yl)methyl)naphthalene-2-sulfonamide] | – | – | %RA at 10μM ± SEM huBChE ([1]; residual activity at 10 µM, Supplementary Table 1): 30% ±2%
23 | CN(CC1CCCN(Cc2ccc(F)cc2)C1)S(=O)(=O)c1ccc2ccccc2c1 (racemic) [compound 72, (±)-N-((1-(4-fluorobenzyl)piperidin-3-yl)methyl)-N-methylnaphthalene-2-sulfonamide] | 96% ±2% | – | –
24 | COCCN(CC1CCCN(C2Cc3ccccc3C2)C1)C(=O)c1ccc2ccccc2c1 (stereo not shown) [compound 1, reference compound] | – | – | IC50 ([2]; Table 1, read-out: IC50 (nM) ± SEM mAChE): 102000 ± 2500 nM
25 | COCCN(CC1CCN(Cc2ccccc2)CC1)S(=O)(=O)c1ccc2ccccc2c1 [compound 75, N-((1-benzylpiperidin-4-yl)methyl)-N-(2-methoxyethyl)naphthalene-2-sulfonamide] | 98% ±1% | – | –
26 | COCCN(CC1CCN(C2Cc3ccccc3C2)CC1)S(=O)(=O)c1ccc2ccccc2c1 [compound 84, N-((1-(2,3-dihydro-1H-inden-2-yl)piperidin-4-yl)methyl)-N-(2-methoxyethyl)naphthalene-2-sulfonamide] | 87% ±3% | – | –
27 | COCCCN(CC1CCN(C2Cc3ccccc3C2)CC1)S(=O)(=O)c1ccc2ccccc2c1 [compound 85, N-((1-(2,3-dihydro-1H-inden-2-yl)piperidin-4-yl)methyl)-N-(3-methoxypropyl)naphthalene-2-sulfonamide] | 86% ±0.004% | – | –
28 | O=S(=O)(NCC1CCN(Cc2ccccc2)CC1)c1ccc2ccccc2c1 [compound 86, N-((1-benzylpiperidin-4-yl)methyl)naphthalene-2-sulfonamide] | – | – | IC50 [2]: 1780 ± 85 nM

Reference: PMC5175178, “Development of an in-vivo active reversible butyrylcholinesterase inhibitor” (Scientific Reports, 2016)
